Measurements from US11472769B2, “SSAO inhibitors and use thereof” (Eccogene (Shanghai) Co., Ltd., priority 2019, dated 2022).

Legend:
recombinant hMAO-A = recombinant hMAO-A (Homo sapiens (Human), UniProt P21397); assay: MAO-A activity assay (MAO-Glo assay kit); type: biochemical; settings: 40 μM substrate, 30 mins pre-incubation
In short: (§1)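 Recombinant human enzymes were pre-incubated 30 min at room temperature with compound (0.1% DMSO), then given luminogenic substrate: 40 μM for SSAO and MAO-A (MAO-A buffer), 4 μM for MAO-B (MAO-B buffer).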

recombinant hSSAO = recombinant hSSAO (Homo sapiens (Human), UniProt Q16853); assay: SSAO Activity Assay (MAO-Glo assay kit); type: biochemical; settings: 40 μM substrate, 30 mins pre-incubation
In short: as §1

[1] = Brain Kpuu assay (BBB assay and protein binding assay); type: in vivo; settings: ICR mice, 1 mg/kg IV, plasma and brain collected at 5 minutes after dosing; for Kp uu at 5 min: mouse, read-out: Kpuu (mouse, t = 5 min)
Procedure: For example, Brain Kpuu assay composed of Blood-Brain-Barrier (BBB) assay and protein binding assay, can be utilized. The protein binding assay comprises equilibrium dialysis against brain lysate and plasma to calculate fu(brain) and fu(plasma), respectively. The BBB assay can be conducted in experimental animals at 1 mg/kg IV dosage. After dosing with the compounds of the present application, plasma and brain samples can be collected to analyze compound concentration (Cplasma and Cbrain). The Kpuu value of the tested compounds can be calculated by the equation: […]
Brain Kpuu assay is composed of Blood-Brain-Barrier (BBB) assay and protein binding assay, which are conducted in ICR mice. Protein binding assays were performed in 96-well plates, using equilibrium dialysis against brain lysate and plasma to calculate fu(brain) and fu(plasma), respectively. BBB assays were conducted in mice at 1 mg/kg IV dosage. Plasma and brain samples were collected at 5 minutes after dosing to analyze compounds concentration (Cplasma and Cbrain). The Kpuu value of the tested compounds was calculated by the equation: […]

recombinant hMAO-B = recombinant hMAO-B (Homo sapiens (Human), UniProt P27338); assay: MAO-B activity assay (MAO-Glo assay kit); type: biochemical; settings: 4 μM substrate, 30 mins pre-incubation
In short: as §1

Chain of recombinant hMAO-B (P27338 whole entry): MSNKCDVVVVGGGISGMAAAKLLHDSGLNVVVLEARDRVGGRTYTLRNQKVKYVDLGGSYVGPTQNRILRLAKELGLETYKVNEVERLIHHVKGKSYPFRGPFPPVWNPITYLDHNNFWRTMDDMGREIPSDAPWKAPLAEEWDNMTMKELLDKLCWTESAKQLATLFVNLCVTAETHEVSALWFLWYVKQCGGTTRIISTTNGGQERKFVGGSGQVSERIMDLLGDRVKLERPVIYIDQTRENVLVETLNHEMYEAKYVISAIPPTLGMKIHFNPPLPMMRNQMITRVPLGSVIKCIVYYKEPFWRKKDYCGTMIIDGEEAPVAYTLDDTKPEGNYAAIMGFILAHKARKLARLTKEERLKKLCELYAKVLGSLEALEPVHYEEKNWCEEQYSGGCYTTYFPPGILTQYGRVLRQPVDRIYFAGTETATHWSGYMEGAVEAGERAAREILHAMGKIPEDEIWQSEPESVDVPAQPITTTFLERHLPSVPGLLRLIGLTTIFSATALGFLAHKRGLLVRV
Chain of recombinant hMAO-A (P21397 whole entry): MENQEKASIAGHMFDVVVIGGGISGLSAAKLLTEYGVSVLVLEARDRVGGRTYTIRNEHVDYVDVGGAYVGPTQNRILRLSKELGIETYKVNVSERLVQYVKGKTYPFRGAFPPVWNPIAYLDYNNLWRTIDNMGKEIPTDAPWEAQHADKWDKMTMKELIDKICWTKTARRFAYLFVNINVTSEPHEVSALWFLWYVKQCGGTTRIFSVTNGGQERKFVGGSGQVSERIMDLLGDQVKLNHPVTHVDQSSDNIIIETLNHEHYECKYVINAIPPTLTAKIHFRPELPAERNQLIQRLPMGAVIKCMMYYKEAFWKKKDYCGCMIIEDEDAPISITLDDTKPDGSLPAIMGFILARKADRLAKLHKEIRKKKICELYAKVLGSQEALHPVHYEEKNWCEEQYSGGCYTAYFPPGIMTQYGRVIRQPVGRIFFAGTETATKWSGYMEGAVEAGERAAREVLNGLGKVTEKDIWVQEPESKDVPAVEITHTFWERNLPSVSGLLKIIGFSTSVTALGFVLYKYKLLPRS
Chain of recombinant hSSAO (Q16853 whole entry): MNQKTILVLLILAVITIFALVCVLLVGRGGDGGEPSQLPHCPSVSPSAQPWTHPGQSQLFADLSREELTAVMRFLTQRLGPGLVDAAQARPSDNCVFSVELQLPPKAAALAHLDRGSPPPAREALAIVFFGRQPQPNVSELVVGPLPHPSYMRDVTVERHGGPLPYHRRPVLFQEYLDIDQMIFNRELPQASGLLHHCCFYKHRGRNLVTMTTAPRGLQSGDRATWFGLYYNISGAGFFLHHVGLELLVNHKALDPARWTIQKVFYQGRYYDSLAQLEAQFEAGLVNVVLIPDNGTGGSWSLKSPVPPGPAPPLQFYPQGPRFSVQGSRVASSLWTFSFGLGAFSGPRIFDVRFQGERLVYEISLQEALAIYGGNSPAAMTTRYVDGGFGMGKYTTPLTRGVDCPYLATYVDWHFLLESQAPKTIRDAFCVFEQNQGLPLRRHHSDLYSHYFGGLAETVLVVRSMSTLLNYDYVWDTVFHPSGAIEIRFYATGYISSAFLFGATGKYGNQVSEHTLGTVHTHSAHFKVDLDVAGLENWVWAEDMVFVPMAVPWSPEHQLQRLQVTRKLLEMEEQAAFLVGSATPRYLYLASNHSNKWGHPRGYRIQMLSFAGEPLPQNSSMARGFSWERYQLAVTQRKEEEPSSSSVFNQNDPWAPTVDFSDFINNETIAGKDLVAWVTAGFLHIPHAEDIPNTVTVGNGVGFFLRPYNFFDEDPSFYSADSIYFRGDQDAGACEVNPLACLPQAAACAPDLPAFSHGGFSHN

IC50 (recombinant hMAO-A) [µM] | IC50 (recombinant hSSAO) [µM] | Kp uu at 5 min [1] | IC50 (recombinant hMAO-B) [µM] | Kpuu (mouse, t = 5 min) [1] | Structure (SMILES)
> 30 | 0.02 to 0.1 | 0.01 | 10 to 30 |  | CC(C)(C)NC(=O)C12CCC(CS(=O)(=O)c3ccc(OC/C(=C/F)CN)cc3)(CC1)CC2 [Compound 70, (E)-4-(((4-((2-(aminomethyl)-3-fluoroallyl)oxy)phenyl)sulfonyl)methyl)-N-(tert-butyl)bicyclo[2.2.2]octane-1-carboxamide]
> 30 | < 0.02 | 0.077 | 10 to 30 |  | CC1(C(=O)NC23CCC(CS(=O)(=O)c4ccc(OC/C(=C/F)CN)cc4)(CC2)CC3)CC1 [Compound 91, (E)-N-(4-(((4-((2-(aminomethyl)-3-fluoroallyl)oxy)phenyl)sulfonyl)methyl)bicyclo[2.2.2]octan-1-yl)-1-methylcyclopropane-1-carboxamide]
 | 0.02 to 0.1 | 0.034 | 10 to 30 |  | CN(C)C(=O)C12CCC(CS(=O)(=O)c3ccc(OC/C(=C/F)CN)cc3)(CC1)CC2 [compound 62, (E)-4-(((4-((2-(aminomethyl)-3-fluoroallyl)oxy)phenyl)sulfonyl)methyl)-N,N-dimethylbicyclo[2.2.2]octane-1-carboxamide]

The next lines start with the compound.

Structure (SMILES) | IC50 (recombinant hMAO-A) [µM] | IC50 (recombinant hSSAO) [µM] | Kp uu at 5 min [1] | IC50 (recombinant hMAO-B) [µM] | Kpuu (mouse, t = 5 min) [1]
NC/C(=C\F)COc1ccc(S(=O)(=O)CC2CCN(C(=O)C3CC3)CC2)cc1 [Compound 44, (E)-(4-(((4-((2-(aminomethyl)-3-fluoroallyl)oxy)phenyl)sulfonyl)methyl)piperidin-1-yl)(cyclopropyl)methanone] | > 30 | 0.02 to 0.1 | 0.025 | > 30 | 
CC(C)(C)NC(=O)c1ccc(OC/C(=C/F)CN)cc1.Cl [BI 1467335 (PXS-4728A), reference compound] |  |  |  |  | 0.23
NC/C(=C\F)COc1ccc(S(=O)(=O)CC23CCC(C(=O)NCC(F)(F)F)(CC2)CC3)cc1 [Compound 65, (E)-4-(((4-((2-(aminomethyl)-3-fluoroallyl)oxy)phenyl)sulfonyl)methyl)-N-(2,2,2-trifluoroethyl)bicyclo[2.2.2] octane-1-carboxamide] | > 30 | < 0.02 | 0.018 | 10 to 30 | 
